In patent US20240208961A1, “EIF4E INHIBITORS AND USES THEREOF” (PIC Therapeutics, Inc., priority 2022, published 2024) one finds tumor size growth and IC50 data, which are given here for two compounds.

One assay has as its system ZR-75-1 tumor. Description: ZR-75-1 subQ CDX model. Format: in vivo. The conditions noted are these: female BALB/c nude mice, 10 mg/kg, PO, QD, FIG. 14. How it is done: Female BALB/c nude mice were inoculated with estrogen tablets (0.36 mg/pellet, 60 days to release) 48 hours before cell inoculation. The xenograft model was established by implantation of […] of ZR-75-1 tumor cell suspension (5×10^6 cells/mouse, with 50% Matrigel) subcutaneously into the right subaxillary of female BALB/c nude mice aged 6-8 weeks. When the average tumor volume reached 153.10 mm^3, the tumor-bearing mice were randomized into treatment groups. The groups were treated as follows: Group 1: vehicle, PO, QW; Group 2: Tamoxifen 10 mg/kg, PO, QD; Group 3: Compound I-11 50 mg/kg, PO, QW.
Cell culture: The ZR-75-1 (breast, ductal carcinoma) cell was purchased from (ATCC® CRL-1500™). The base medium for this cell line ATCC-formulated RPMI-1640 Medium. To make the complete growth medium, the base medium was supplemented with 10% heat inactivated FBS and 1% PS, maintained at 37° C. in an atmosphere containing 5% CO2 in air. The tumor cells were routinely subcultured at a ratio of 1:1.5 to 1:3 every 3-6 days. Cell concentration at harvest time was 5.39×10^7 cells/mL and cell viability was 94.3% before inoculation.
Tumor inoculation: BALB/c nude mice were used in this study. Each mouse was inoculated with estrogen tablets 48 hours before cell inoculation (0.3 mg/pellet, 60 days to release). […]

The subject of a further assay is MM.1R cells. Description: 5 day viability assay in MM.1R cells, I-11 and dexamethasone (Example 7). The conditions noted are these: 120 h; MM.1R cells (steroid resistant), 5 days, Alamar Blue; read-out: IC50 (μM), Viability Assessment (5 Days) in MM.1R Cells. The format is cell-based. How it is done: (§1) Compound I-11 was studied in the context of dexamethasone combinations, which is used clinically in early Multiple Myeloma prior to the emergence of steroid resistance and is a common backbone therapy. The MM.1S cell line is a steroid sensitive line, and the MM.1R line is the corresponding cell line which has been driven to steroid resistance. The procedure for these studies was as follows:
(§2) Day 1: Cell Seeding and Compound Dosing
(§3) • Cells were seeded 2×10^5 in 96-well cell culture treated tissue culture plates: 87.5 μL/well; MM.1 S and MM.1R • A 5-fold serial dilution of each compound in DMSO (0-25 mM) was prepared in compound storage plates (stored at −80° C. if not to be used immediately). An 8-point curve was used for compound I-11, and a 6-point curve was used for dexamethasone (0-25 mM). • Cells were rinsed with 1% FBS Media and replaced with 87.5 μL media prior to dosing. • DMSO compound dilution series was diluted in 1% FBS media—2 μL compound in 123 μL media to give a 16× final concentration. Dosing across the plate columns 1-12 (compound I-11 0-400 μM), 6.25 μL 16× in media/well. Dosing down plate rows (columns 1-6 dexamethasone 0-400 μM), 6.25 μL 16× compound in media per well. • Cells were dosed with 12.5 μL for both compounds, with 2 replicates of dosing matrix per 96-well plate. Final volume cells and compound was 100 μL/well. • Media blank 100 μL/well×8 was set up. • All plates were incubated at 37° C.
(§4) Day 6: 5 Day Viability Assay
(§5) • Alamar Blue viability reagent was added (10 μL per well) and incubated for 3 hours at 37° C. prior to fluorescence detection (Ex560 nm/Em590 nm) on a Varioskan Lux multimode plate reader.
On the technique in general: Alamar Blue is a resazurin reagent that responds to reducing activity.

The next assay relates to MM.1S cells. Description: 5 day viability assay in MM.1S cells, I-11 and dexamethasone (Example 7). As to conditions: Homo sapiens, MM1.S, 120 h; MM.1S cells (steroid sensitive), 5 days, Alamar Blue; read-out: IC50 (μM), Viability Assessment (5 Days) in MM.1S Cells. Format: cell-based. How it is done:
as §1, §2, §3, §4, §5

On to `CC/C(=C(\c1ccccc1)c1ccc(OCCN(C)C)cc1)c1ccccc1` [Tamoxifen, reference compound], for which, in the assay with ZR-75-1 tumor, the tumor size growth entry is given as “reduced tumor size growth”.

A word on the IC50: it is the concentration that gives 50% inhibition. As for `C[C@@H]1C[C@H]2[C@@H]3CCC4=CC(=O)C=C[C@]4(C)[C@@]3(F)[C@@H](O)C[C@]2(C)[C@@]1(O)C(=O)CO` [dexamethasone, reference compound], the IC50 with MM.1R cells stood at 30.9 µM; in the assay with MM.1S cells, 0.0133 µM.
